Earlier results on one compound are cited in US20220143119A1, “CROTON LECHLERI COMPOSITIONS FOR USE IN THE TREATMENT OF SKIN CANCER” (ALPHYN BIOLOGICS, LLC, priority 2019, published 2022).

In this series the test system is human melanoma SK23.

On to `COc1ccc2c(=O)oc3c(OC)cc(CCN(C)C)c4c(=O)oc1c2c34` [taspine], for which the “inhibition against human melanoma SK23” value was “exhibits inhibition”.
